Consider one compound from US20240415781A1, “PYROPTOSIS-TRIGGERING LIPID NANOPARTICLE” (NEW JERSEY INSTITUTE OF TECHNOLOGY, priority 2023, published 2024).

A short description of this test: Ionizable cationic lipid library screen, in vitro delivery of luciferase mRNA (mLuc). The class given is cell-based. The following applies: 18*8 library, LNPs with DOPE, cholesterol, DMG-PEG. An excerpt: In some embodiments, an ionizable cationic lipid is generally composed of three parts: (1) one or more hydrophilic headgroups containing one or multiple ionizable amines for condensing negatively charged mRNA; (2) one or more hydrophobic hydrocarbon chains capable of promoting self-assembly and phospholipid membrane fusion; and (3) one or more degradable ester linkers connecting the headgroups with the hydrocarbon chains to potentially lower systemic cytotoxicity, as shown in FIG. 9B. In some embodiments, a new library of ionizable cationic lipids is provided, with ionizable amine headgroups derived from different amino alcohols and hydrocarbon lipid chains derived from commercially available lipid acids. In some embodiments, using CALB enzyme-assisted reaction, the hydroxyl groups were reacted with carboxylic acids via one-step high-efficiency esterification, as shown in FIG. 9A. An 18*8 library of lipid-like materials was synthesized by varying amino alcohols and lipid acids. These lipid-like materials with DOPE, cholesterol, and DMG-PEG were fabricated at a molar ratio of 50:10:38.5:1.5, which was a widely used formulation to form LNPs and delivered luciferase encoded mRNA (mLuc) in vitro to generate a luciferase expression heat map of lipid-like materials. […]

`CCCCC/C=C\C/C=C\CCCCCCCC(=O)OCCN1CCN(CCOC(=O)CCCCCCC/C=C\C/C=C\CCCCC)CC1` [AA3-DLin]: the “rank in luciferase expression screen of lipid-like materials” value was “top-performing”.
